# Results: patent US10947188B2, “Small molecule ferroptosis inducers” (THE TRUSTEES OF COLUMBIA UNIVERSITY IN THE CITY OF NEW YORK, priority 2016, dated 2021)
# Test system: HT-1080
# Test: Modulatory profiling: Alamar Blue viability, lethal compound cotreated with death modulator (EC50, AUC); for AUC HT.BHA: reference of the scale not given here; for AUC HT.EGTA: reference of the scale not given here
# Format: cell-based
# Parameters: AUC, modulator HT.3MA / AUC, modulator HT.ALLN / AUC HT.ATA / AUC HT.ActD / AUC HT.BHA / AUC HT.BHT / AUC HT.BocD / AUC HT.CHX / AUC HT.Co2+ / AUC HT.DPQ / AUC HT.EGTA / AUC HT.Lmim / AUC HT.NAD+ / AUC HT.Nec-1 / AUC HT.SP600125 / AUC HT.TLCK / AUC HT.U0126: unit not given beside the values
# Details: for AUC HT.ATA: HT-1080, modulator ATA; for AUC HT.ActD: HT-1080, modulator ActD; for AUC HT.BHA: HT-1080, modulator BHA; for AUC HT.BHT: HT-1080, modulator BHT; for AUC HT.BocD: HT-1080, modulator BocD; for AUC HT.CHX: HT-1080, modulator CHX; for AUC HT.Co2+: HT-1080, modulator Co2+; for AUC HT.CspA: HT-1080, modulator CspA; for AUC HT.DPQ: HT-1080, modulator DPQ; for AUC HT.EGTA: HT-1080, modulator EGTA; for AUC HT.Gd3+: HT-1080, modulator Gd3+; for AUC HT.LNAME: HT-1080, modulator LNAME; for AUC HT.Lmim: HT-1080, modulator Lmim; for AUC HT.NAD+: HT-1080, modulator NAD+; for AUC HT.NMMA: HT-1080, modulator NMMA; for AUC HT.Nec-1: HT-1080, modulator Nec-1; for AUC HT.Pepstatin: HT-1080, modulator Pepstatin; for AUC HT.SP600125: HT-1080, modulator SP600125; for AUC HT.TLCK: HT-1080, modulator TLCK; for AUC HT.U0126: HT-1080, modulator U0126; for HT.atoc (AUC) / HT.bCarotene (AUC) / HT.deferox (AUC) / HT.digoxin (AUC) / HT.trolox (AUC) / HT.zVAD (AUC): HT-1080; for HT.atoc (AUC): modulator atoc; for HT.bCarotene (AUC): modulator bCarotene; for HT.deferox (AUC): modulator deferox; for HT.digoxin (AUC): modulator digoxin; for HT.trolox (AUC): modulator trolox; for HT.zVAD (AUC): modulator zVAD; for AUC, modulator HT.3MA / AUC, modulator HT.ALLN: HT-1080 cells, modulatory profile value (AUC); for AUC, modulator HT.3MA: lethal compound cotreated with modulator 3MA; for AUC, modulator HT.ALLN: lethal compound cotreated with modulator ALLN
Compound,AUC HT.ATA,AUC HT.ActD,AUC HT.BHA,AUC HT.BHT,AUC HT.BocD,AUC HT.CHX,AUC HT.Co2+,AUC HT.CspA,AUC HT.DPQ,AUC HT.EGTA,AUC HT.Gd3+,AUC HT.LNAME,AUC HT.Lmim,AUC HT.NAD+,AUC HT.NMMA,HT.atoc (AUC),HT.bCarotene (AUC),HT.deferox (AUC),HT.digoxin (AUC),HT.trolox (AUC),also measured
CC(C)C[C@H](NC(=O)[C@H](Cc1ccccc1)NC(=O)c1cnccn1)B(O)O [Bortezomib],0.0541,−0.07229,−0.04985,−0.131,0.02874,0.02631,0.06445,−0.2224,0.01079,−0.006629,−0.02823,0.009924,0.01347,0.139,0.01354,0.007023,−0.01914,−0.01672,0.07916,−0.004183,"AUC HT.Nec-1: −0.06186; AUC HT.Pepstatin: −8.033E−05; AUC HT.SP600125: −0.03028; AUC HT.TLCK: 0.07195; AUC HT.U0126: −0.03187; HT.zVAD (AUC): 0.01074; AUC, modulator HT.3MA: −0.07171; AUC, modulator HT.ALLN: −0.08587"
COc1ccccc1/C=C/C1(C(=O)NC2CCCC2)CC(=O)N1c1ccc(F)cc1 (centres unmarked) [CIL1],−0.0478,−0.04057,0.02691,−0.0849,−0.01644,0.09163,0.2048,−0.04542,0.04203,−0.006602,−0.03215,0.03977,0.08631,0.07889,−0.0482,0.216,−0.02846,0.08359,−0.003809,0.02477,"AUC HT.Nec-1: 0.02294; AUC HT.Pepstatin: 0.001474; AUC HT.SP600125: −0.04919; AUC HT.TLCK: 0.04647; AUC HT.U0126: 0.1491; HT.zVAD (AUC): −0.0551; AUC, modulator HT.3MA: −0.001968; AUC, modulator HT.ALLN: 0.1053"
CC1CC(C)(C)Nc2ccc(OC(=O)c3ccco3)cc21 (centres unmarked) [CIL4],0.02806,−0.001463,−0.00931,−0.02212,0.1272,0.1096,−0.144,−0.04696,0.007359,0.01533,−0.009953,0.01005,−0.01928,−0.01381,−0.007501,0.02362,0.001026,−3.785E−05,−0.02389,−0.0201,"AUC HT.Nec-1: 0.002499; AUC HT.Pepstatin: 0.00928; AUC HT.SP600125: −0.006297; AUC HT.TLCK: 0.0172; AUC HT.U0126: 0.0005624; HT.zVAD (AUC): 0.0146; AUC, modulator HT.3MA: 0.02219; AUC, modulator HT.ALLN: 0.02482"
CN(C)CC(O)Cn1c2ccc(Cl)cc2c2cc(Cl)ccc21 (centres unmarked) [CIL5],0.0005893,−0.00753,−0.08502,−0.09917,0.01524,0.09726,0.08698,−0.02159,0.009641,−0.009215,−0.0257,0.02263,0.003574,0.03421,−0.003405,0.03603,−0.01403,−0.01025,0.005534,0.01247,"AUC HT.Nec-1: 0.003351; AUC HT.Pepstatin: 0.01965; AUC HT.SP600125: −0.02149; AUC HT.TLCK: −0.004057; AUC HT.U0126: −0.02944; HT.zVAD (AUC): −0.01378; AUC, modulator HT.3MA: 0.0132; AUC, modulator HT.ALLN: 0.07446"
O=C1c2ccccc2-c2onc3ccc(Oc4ccccc4)c1c23 [CIL6],0.007654,−0.008928,−0.007636,−0.06114,0.076,0.161,0.04208,−0.01275,0.04323,0.01026,−0.02897,0.0157,−0.01064,0.04899,−0.02292,0.1204,−0.0173,0.02051,0.009607,−0.01697,"AUC HT.Nec-1: 0.01299; AUC HT.Pepstatin: 0.0188; AUC HT.SP600125: −0.01195; AUC HT.TLCK: −0.00546; AUC HT.U0126: 0.04846; HT.zVAD (AUC): −0.01676; AUC, modulator HT.3MA: 0.06096; AUC, modulator HT.ALLN: 0.04648"
OCCNCC(O)Cn1c2ccc(Br)cc2c2cc(Br)ccc21 (centres unmarked) [CIL7],−0.01671,−0.01197,−0.06352,−0.103,0.07799,0.0511,0.1062,−0.06441,0.005254,0.006456,−0.02982,0.01998,−0.002674,0.07707,−0.02442,0.02896,−0.0174,−0.05071,0.003869,−0.006321,"AUC HT.Nec-1: 0.007138; AUC HT.Pepstatin: −0.00124; AUC HT.SP600125: −0.04155; AUC HT.TLCK: −0.01113; AUC HT.U0126: 0.01556; HT.zVAD (AUC): −0.03773; AUC, modulator HT.3MA: −0.004626; AUC, modulator HT.ALLN: 0.1136"
COc1ccc(Nc2ccc3c(c2)=NC2(CCCCC2)[N+]=3[O-])cc1 [CIL9],−0.003144,−0.064,−0.04477,−0.1803,−0.02376,0.07227,0.01754,−0.03079,−0.003317,−0.006848,−0.04358,0.02124,−0.05469,0.02617,−0.03733,0.05157,−0.006502,0.05678,−0.01984,−0.03599,"AUC HT.Nec-1: 0.02133; AUC HT.Pepstatin: −0.002188; AUC HT.SP600125: 0.01016; AUC HT.TLCK: 0.005514; AUC HT.U0126: 0.03915; HT.zVAD (AUC): −0.00166; AUC, modulator HT.3MA: 0.04492; AUC, modulator HT.ALLN: −0.02077"
O=C1C(Cl)=C(N2CCOCC2)C(=O)C(Cl)=C1N1CCOCC1 [CIL11],0.0148,−0.0343,−0.01902,−0.09641,0.07911,0.007052,0.05358,−0.005498,0.003904,0.004002,−0.0298,0.02954,−0.034,0.02582,−0.02554,0.07926,−0.01827,0.0278,−0.01376,−0.02115,"AUC HT.Nec-1: 0.01983; AUC HT.Pepstatin: −0.003096; AUC HT.SP600125: −0.02876; AUC HT.TLCK: 0.01902; AUC HT.U0126: 0.06089; HT.zVAD (AUC): −0.002495; AUC, modulator HT.3MA: 0.0001144; AUC, modulator HT.ALLN: 0.01794"
Cc1cccnc1Nc1nc(-c2ccccn2)cs1 [CIL13],0.04672,−0.04327,−0.06288,−0.104,0.09941,0.03999,0.2924,0.06243,−0.01515,0.08353,−0.03072,−0.07962,−0.06102,−0.04462,−0.04118,0.1029,0.01006,0.05411,0.03512,−0.03975,"HT.zVAD (AUC): 0.01164; AUC, modulator HT.3MA: 0.02535; AUC, modulator HT.ALLN: 0.01646; effect of cobalt (II) on lethality (modulatory profiles, CoCl2 supplementation): inhibited by cobalt (II)"
C[S+]([O-])c1nc(-c2ccc(Br)cc2)cc(-c2ccccc2)c1C#N (centres unmarked) [CIL17],−0.0157,−0.03982,−0.02052,−0.138,0.0313,0.06579,−0.008436,−0.03354,−0.02303,0.001857,−0.04318,0.02242,−0.0132,0.04423,−0.02639,0.145,−0.005211,0.02894,−0.003189,0.004595,"HT.zVAD (AUC): 0.008536; AUC, modulator HT.3MA: 0.01558; AUC, modulator HT.ALLN: 0.03631"
CCCCNc1cc(C)nc(NCc2ccccc2)n1 [CIL18],0.001415,0.0184,−0.08703,−0.1394,0.06607,0.1179,0.1598,−0.04827,−0.01276,−0.009461,−0.03302,0.01329,−0.004987,0.09493,−0.02918,0.1295,−0.0001406,−0.009951,−0.004198,−0.01205,"HT.zVAD (AUC): 0.0101; AUC, modulator HT.3MA: 0.01461; AUC, modulator HT.ALLN: 0.07303"
O=c1c(N2CCCC2)c(Cl)cnn1-c1ccccc1 [CIL20],−0.001276,−0.006608,0.0001715,−0.08075,0.01009,0.1212,0.1205,−0.05648,−0.03779,−0.01805,−0.02607,0.01703,0.002914,0.05985,−0.0209,0.0292,0.008618,0.03912,0.01851,0.03002,"HT.zVAD (AUC): −0.02079; AUC, modulator HT.3MA: 0.004881; AUC, modulator HT.ALLN: 0.09673"
